US7074789B2, “Kinase inhibitors” (Amgen Inc., priority 1999, dated 2006)
Where two headings read alike, the source gives them in different places.

How the values were obtained:
Type in all cases: biochemical
ErbB2 = target: T1, ErbB2 (Homo sapiens, UniProt P04626); assay: Kinase inhibition assay (33P transfer), ErbB2; conditions: read-out: ErbB2-2
T1 construct: Kinases are expressed as either kinase domains or full length constructs; made in house
Excerpt: The inhibitor compounds described herein are screened in the following manner. Kinases suitable for use in the following protocol to determine kinase activity of the compounds described herein include, -but are not limited to: Lck, Lyn, Src, Fyn, Syk, Zap-70, Itk, Tec, Btk, EGFR, ErbB2, Kdr, Flt-1, Flt-3, Tek, c-Met, InsR, and AKT.
Kinases are expressed as either kinase domains or full length constructs fused to glutathione S-transferase (GST) or polyHistidine tagged fusion proteins in either E. colior Baculovirus-High Five expression systems. They are purified to near homogeneity by affinity chromatography essentially as previously described (Lehr et al., 1996; Gish et al., 1995). In some instances, kinases are co-expressed or mixed with purified or partially purified regulatory polypeptides prior to measurement of activity.
Kinase activity and inhibition are measured essentially by established protocols (Braunwalder et al., 1996). Briefly, The transfer of ^33PO4 from ATP to the synthetic substrates poly(Glu, Tyr) 4:1 or poly(Arg, Ser) 3:1 attached to the bioactive surface of microtiter plates serves as the basis to evaluate enzyme activity. After an incubation period, the amount of phosphate transferred is measured by first washing the plate with 0.5% phosphoric acid, adding liquid scintillant, and then counting in a liquid scintillation detector. The IC50 is determined by the concentration of compound that causes a 50% reduction in the amount of […] incorporated onto the substrate bound to the plate.

IGFR-1 = target: T2, IGFR-1 (Homo sapiens, UniProt P08069); assay: Kinase inhibition assay, IGFR-1 (Table 2); conditions: Table 2, kinase inhibition class
T2 construct: Kinases are expressed as either kinase domains or full length constructs; made in house

Zap-70 = target: T3, Zap-70 (Homo sapiens, UniProt P43403); assay: Kinase inhibition assay (33P transfer), Zap-70; conditions: read-out: Zap-1
T3 construct: Kinases are expressed as either kinase domains or full length constructs; made in house
T3 sequence (P43403 1-619): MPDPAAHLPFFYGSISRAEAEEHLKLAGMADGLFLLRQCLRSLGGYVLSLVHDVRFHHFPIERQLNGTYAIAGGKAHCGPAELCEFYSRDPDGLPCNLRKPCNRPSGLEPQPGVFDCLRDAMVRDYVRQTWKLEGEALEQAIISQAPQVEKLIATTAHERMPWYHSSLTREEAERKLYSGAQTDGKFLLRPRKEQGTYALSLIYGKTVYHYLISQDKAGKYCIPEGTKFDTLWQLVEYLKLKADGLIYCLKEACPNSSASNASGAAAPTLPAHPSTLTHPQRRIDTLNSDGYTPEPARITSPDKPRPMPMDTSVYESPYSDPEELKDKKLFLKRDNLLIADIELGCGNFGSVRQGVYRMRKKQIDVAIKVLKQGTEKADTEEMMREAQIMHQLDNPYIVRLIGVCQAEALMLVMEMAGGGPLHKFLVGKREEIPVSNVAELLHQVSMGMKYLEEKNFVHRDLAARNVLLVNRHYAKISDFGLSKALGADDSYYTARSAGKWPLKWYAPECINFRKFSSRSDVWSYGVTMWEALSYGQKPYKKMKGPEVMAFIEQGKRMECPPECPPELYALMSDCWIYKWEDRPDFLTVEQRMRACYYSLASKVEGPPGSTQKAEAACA
How it was run: (§1)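 Filterless plate radiometric format: immobilized poly(Glu,Tyr) 4:1 or poly(Arg,Ser) 3:1, 33P-labelled ATP, tagged recombinant kinase (some with regulatory partners). Incorporated label counted after phosphoric acid wash.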

EGFR = target: T4, EGFR (Homo sapiens, UniProt P00533); assay: Kinase inhibition assay (33P transfer), EGFR; conditions: Table 2, kinase inhibition class; read-out: EGFR-1
T4 construct: Kinases are expressed as either kinase domains or full length constructs; made in house
How it was run: (§2)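 IC50: inhibitor concentration lowering 33P incorporation into immobilised substrate by 50%. Label transferred from ATP to poly(Glu,Tyr) 4:1 or poly(Arg,Ser) 3:1 is measured after a 0.5% phosphoric acid wash by liquid scintillation.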

Lck = target: T5, Lck (Homo sapiens, UniProt P06239); assay: Kinase inhibition assay (33P transfer), Lck; conditions: read-out: Lck-1
T5 construct: Kinases are expressed as either kinase domains or full length constructs; made in house
How it was run: as §1

AKT = target: T6, AKT (Homo sapiens, UniProt Q9Y243); assay: Kinase inhibition assay (33P transfer), AKT; conditions: Table 2, kinase inhibition class; read-out: AKT3-1
T6 construct: Kinases are expressed as either kinase domains or full length constructs; made in house
How it was run: as §1

Kdr = target: T7, Kdr (Homo sapiens, UniProt P35968); assay: Kinase inhibition assay (33P transfer), Kdr; conditions: read-out: KDR-1
T7 construct: Kinases are expressed as either kinase domains or full length constructs; made in house
How it was run: as §1

c-Met = target: T8, c-Met (Homo sapiens, UniProt P08581); assay: Kinase inhibition assay (33P transfer), c-Met; conditions: Table 2, kinase inhibition class; read-out: Met-1
T8 construct: Kinases are expressed as either kinase domains or full length constructs; made in house
How it was run: as §2

Tek = target: T9, Tek (Homo sapiens, UniProt Q02763); assay: Kinase inhibition assay (33P transfer), Tek; conditions: read-out: Tek-1
T9 construct: Kinases are expressed as either kinase domains or full length constructs; made in house
How it was run: as §2

Itk = target: T10, Itk (Homo sapiens, UniProt Q08881); assay: Kinase inhibition assay (33P transfer), Itk; conditions: read-out: Itk-1
T10 construct: Kinases are expressed as either kinase domains or full length constructs; made in house
T10 sequence (Q08881 1-620): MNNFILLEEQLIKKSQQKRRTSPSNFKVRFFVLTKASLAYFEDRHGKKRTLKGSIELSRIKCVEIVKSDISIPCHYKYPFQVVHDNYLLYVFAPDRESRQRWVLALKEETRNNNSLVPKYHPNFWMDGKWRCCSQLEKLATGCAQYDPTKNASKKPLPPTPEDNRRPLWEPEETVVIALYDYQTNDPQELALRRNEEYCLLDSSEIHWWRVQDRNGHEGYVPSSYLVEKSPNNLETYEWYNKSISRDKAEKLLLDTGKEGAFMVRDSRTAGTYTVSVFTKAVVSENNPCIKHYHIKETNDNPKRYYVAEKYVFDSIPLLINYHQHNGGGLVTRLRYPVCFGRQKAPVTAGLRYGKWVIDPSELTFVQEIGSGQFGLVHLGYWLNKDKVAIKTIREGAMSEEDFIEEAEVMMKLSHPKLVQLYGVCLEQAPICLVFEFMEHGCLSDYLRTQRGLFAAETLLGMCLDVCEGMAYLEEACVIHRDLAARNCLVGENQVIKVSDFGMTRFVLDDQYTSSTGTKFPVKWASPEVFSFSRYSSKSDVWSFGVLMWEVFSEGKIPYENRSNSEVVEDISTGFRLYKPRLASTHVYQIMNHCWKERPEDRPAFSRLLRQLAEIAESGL
How it was run: as §2

T2 sequence (P08069 31-1367): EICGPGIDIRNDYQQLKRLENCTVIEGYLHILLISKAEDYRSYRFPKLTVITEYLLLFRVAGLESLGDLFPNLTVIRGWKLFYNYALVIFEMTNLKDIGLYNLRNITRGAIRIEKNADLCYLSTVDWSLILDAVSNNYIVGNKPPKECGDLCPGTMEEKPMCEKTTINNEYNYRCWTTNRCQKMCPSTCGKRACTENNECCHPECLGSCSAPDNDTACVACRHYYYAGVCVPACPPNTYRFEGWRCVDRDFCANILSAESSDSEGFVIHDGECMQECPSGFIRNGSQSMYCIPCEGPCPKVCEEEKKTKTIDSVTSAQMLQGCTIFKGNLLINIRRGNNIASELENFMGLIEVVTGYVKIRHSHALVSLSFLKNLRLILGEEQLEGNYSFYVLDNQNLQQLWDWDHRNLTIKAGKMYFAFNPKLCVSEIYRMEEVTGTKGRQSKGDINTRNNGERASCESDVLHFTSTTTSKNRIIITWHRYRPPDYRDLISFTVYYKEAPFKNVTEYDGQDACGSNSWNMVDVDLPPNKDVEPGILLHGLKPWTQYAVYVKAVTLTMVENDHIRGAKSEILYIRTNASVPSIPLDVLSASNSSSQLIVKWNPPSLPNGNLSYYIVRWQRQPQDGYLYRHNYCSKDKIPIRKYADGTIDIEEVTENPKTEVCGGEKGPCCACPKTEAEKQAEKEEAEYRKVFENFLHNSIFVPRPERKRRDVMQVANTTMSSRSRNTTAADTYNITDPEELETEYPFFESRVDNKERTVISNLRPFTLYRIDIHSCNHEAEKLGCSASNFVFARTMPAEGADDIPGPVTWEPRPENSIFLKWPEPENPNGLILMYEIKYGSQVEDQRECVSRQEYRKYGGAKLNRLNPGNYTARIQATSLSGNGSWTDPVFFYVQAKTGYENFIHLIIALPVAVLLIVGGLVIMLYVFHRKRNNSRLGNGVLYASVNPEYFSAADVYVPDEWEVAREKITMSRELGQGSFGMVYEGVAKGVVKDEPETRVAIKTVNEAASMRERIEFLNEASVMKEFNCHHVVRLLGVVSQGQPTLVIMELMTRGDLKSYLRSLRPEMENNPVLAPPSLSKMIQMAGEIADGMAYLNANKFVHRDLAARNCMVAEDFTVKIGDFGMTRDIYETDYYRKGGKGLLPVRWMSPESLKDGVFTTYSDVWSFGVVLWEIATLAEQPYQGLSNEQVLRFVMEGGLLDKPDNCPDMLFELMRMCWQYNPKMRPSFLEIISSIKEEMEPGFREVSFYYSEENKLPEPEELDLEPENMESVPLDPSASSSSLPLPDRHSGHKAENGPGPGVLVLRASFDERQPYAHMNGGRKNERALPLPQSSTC
T6 sequence (Q9Y243 whole entry, the tested form may be a part): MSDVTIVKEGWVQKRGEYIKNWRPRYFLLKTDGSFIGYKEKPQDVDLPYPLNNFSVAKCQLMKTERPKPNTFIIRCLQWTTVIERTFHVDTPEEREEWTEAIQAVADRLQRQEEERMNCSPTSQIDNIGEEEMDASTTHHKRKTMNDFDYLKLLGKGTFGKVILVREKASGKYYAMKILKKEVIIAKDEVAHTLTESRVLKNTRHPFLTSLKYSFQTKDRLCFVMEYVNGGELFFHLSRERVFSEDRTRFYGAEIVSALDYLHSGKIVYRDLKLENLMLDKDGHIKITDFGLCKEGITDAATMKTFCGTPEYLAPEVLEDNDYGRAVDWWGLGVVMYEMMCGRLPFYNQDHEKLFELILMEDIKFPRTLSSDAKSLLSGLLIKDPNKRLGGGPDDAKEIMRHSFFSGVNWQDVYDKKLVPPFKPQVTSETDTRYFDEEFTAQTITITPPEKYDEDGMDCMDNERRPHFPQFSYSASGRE
T8 sequence (P08581 25-1390): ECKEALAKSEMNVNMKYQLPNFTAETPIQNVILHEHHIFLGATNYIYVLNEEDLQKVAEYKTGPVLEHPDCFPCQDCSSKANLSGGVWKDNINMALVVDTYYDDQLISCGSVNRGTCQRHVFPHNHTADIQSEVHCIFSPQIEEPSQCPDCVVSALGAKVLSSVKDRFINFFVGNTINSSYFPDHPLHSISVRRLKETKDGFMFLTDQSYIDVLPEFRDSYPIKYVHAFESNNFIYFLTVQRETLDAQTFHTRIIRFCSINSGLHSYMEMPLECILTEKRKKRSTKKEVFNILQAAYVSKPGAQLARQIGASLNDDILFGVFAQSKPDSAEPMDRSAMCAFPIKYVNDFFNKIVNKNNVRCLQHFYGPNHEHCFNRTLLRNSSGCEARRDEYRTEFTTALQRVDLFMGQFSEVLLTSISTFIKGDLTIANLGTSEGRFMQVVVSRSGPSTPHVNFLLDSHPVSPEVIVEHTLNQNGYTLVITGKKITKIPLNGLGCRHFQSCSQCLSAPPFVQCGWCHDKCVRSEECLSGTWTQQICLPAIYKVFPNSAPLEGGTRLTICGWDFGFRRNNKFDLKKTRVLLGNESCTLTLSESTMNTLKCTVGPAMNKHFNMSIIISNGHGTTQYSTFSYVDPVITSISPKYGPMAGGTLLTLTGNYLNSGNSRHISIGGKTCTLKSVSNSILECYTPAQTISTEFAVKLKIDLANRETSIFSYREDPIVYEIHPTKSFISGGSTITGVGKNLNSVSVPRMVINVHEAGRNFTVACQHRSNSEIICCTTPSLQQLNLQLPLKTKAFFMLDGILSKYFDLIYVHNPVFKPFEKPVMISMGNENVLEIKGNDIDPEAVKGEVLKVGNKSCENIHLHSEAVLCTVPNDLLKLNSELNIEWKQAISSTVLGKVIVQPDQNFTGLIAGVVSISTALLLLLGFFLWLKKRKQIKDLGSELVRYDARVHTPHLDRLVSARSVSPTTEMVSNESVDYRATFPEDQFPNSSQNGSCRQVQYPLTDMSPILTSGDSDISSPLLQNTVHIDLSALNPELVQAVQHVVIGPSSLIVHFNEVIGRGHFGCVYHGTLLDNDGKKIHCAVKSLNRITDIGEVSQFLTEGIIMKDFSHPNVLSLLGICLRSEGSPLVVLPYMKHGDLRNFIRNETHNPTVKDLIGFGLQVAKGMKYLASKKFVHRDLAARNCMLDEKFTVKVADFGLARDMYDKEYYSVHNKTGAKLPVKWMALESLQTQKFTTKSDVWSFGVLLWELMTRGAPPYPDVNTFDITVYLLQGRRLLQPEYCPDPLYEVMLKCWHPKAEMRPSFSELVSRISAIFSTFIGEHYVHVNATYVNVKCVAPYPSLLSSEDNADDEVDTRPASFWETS
T9 sequence (Q02763 23-1124, species assumed): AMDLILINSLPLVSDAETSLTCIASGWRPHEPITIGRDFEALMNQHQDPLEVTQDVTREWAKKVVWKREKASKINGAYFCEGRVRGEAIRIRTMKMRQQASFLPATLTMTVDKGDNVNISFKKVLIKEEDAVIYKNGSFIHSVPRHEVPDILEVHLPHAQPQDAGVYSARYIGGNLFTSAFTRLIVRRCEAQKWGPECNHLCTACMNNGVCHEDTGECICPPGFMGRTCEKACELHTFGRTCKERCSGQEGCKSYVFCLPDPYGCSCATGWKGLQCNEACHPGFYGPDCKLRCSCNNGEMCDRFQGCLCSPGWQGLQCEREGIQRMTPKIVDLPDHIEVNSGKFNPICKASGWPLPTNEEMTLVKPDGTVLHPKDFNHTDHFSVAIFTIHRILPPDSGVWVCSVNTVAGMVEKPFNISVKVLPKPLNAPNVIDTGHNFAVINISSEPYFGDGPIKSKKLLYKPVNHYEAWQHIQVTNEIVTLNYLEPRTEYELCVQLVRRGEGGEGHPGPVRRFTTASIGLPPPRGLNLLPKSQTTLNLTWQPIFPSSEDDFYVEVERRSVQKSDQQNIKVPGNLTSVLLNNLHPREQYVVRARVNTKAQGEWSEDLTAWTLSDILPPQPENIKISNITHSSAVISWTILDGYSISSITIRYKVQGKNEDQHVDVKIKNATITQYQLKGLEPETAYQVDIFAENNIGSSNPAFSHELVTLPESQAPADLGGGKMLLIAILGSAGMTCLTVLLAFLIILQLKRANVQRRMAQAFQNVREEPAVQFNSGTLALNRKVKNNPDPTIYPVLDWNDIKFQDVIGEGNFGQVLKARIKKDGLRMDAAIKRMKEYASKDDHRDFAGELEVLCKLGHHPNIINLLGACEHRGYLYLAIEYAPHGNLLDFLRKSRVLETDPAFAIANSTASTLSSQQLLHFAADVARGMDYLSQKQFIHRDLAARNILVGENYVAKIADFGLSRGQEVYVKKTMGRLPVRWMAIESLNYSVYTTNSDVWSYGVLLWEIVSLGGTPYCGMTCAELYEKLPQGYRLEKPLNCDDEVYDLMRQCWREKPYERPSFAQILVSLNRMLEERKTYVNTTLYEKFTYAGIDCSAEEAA
T5 sequence (P06239 whole entry, species assumed, the tested form may be a part): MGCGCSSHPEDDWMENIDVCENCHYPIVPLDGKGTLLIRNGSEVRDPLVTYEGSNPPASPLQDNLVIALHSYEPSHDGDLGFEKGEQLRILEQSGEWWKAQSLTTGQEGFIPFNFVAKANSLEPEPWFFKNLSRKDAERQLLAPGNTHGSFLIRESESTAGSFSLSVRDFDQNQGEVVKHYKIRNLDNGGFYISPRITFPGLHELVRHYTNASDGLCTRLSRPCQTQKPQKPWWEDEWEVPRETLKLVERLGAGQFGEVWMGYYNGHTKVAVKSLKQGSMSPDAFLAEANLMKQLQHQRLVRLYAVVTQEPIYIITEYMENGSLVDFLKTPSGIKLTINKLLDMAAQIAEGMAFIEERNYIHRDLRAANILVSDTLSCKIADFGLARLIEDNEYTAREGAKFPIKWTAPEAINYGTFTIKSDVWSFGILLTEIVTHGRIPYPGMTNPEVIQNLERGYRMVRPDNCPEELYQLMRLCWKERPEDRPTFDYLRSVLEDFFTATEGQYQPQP

IC50 (ErbB2) [µM]	IC50 (IGFR-1) [µM]	IC50 (Zap-70) [µM]	IC50 (EGFR) [µM]	IC50 (Lck) [µM]	IC50 (AKT) [µM]	IC50 (Kdr) [µM]	IC50 (c-Met) [µM]	IC50 (Tek) [µM]	IC50 (Itk) [µM]	IC50 (Zap-70; Table 3) [µM]	IC50 (Lck; Table 3) [µM]	IC50 (Kdr; Table 3) [µM]	IC50 (Itk; Table 3) [µM]	Structure (SMILES)
6.36 to 9.27	< 1.06	> 11.9	> 11.9	6.36 to 9.27	> 11.9	1.06 to 6.36	6.36 to 9.27	> 11.9	9.27 to 11.9	–	–	–	–	COc1cc(C)c(Nc2ncnc(-n3c(N)nc4ccccc43)n2)cc1OC [Compound 524]
4.92 to 7.18	0.821 to 4.92	> 9.23	4.92 to 7.18	0.821 to 4.92	7.18 to 9.23	0.821 to 4.92	4.92 to 7.18	> 9.23	> 9.23	–	–	–	–	COc1cc(Nc2ncnc(Nc3cc(-c4cccc(C(F)(F)F)c4)n[nH]3)n2)cc(OC)c1OC [Compound 1000]
5.7 to 8.31	0.949 to 5.7	> 10.7	> 10.7	> 10.7	> 10.7	8.31 to 10.7	> 10.7	> 10.7	> 10.7	–	–	–	–	COC(=O)c1cc(OC)c(OC)cc1Nc1ncnc(-n2c(N)nc3ccccc32)n1 [Compound 476]
0.923 to 5.54	< 0.923	> 10.4	0.923 to 5.54	< 0.923	> 10.4	< 0.923	< 0.923	> 10.4	0.923 to 5.54	–	–	–	–	COc1cc(Nc2ncnc(Nc3cc(-c4ccc(C)cc4)n[nH]3)n2)cc(OC)c1OC [Compound 521]
–	–	–	> 12.9	–	> 12.9	–	> 12.9	6.87 to 10	–	6.87 to 10	> 12.9	1.15 to 6.87	> 12.9	O=c1[nH]c2ccccc2n1-c1ncnc(Nc2cccc([N+](=O)[O-])c2)n1 [Compound 467]
–	–	> 7.71	> 7.71	0.685 to 4.11	> 7.71	< 0.685	> 7.71	6 to 7.71	> 7.71	–	–	–	–	COc1cc(Nc2ncnc(-n3c(NCc4ccccn4)nc4ccccc43)n2)cc(OCCN2CCOCC2)c1OC [Compound 507]
–	–	> 12.5	> 12.5	6.68 to 9.74	> 12.5	6.68 to 9.74	9.74 to 12.5	6.68 to 9.74	6.68 to 9.74	–	–	–	–	CC(C)(C)c1ccc(Nc2ncnc(-n3c(N)nc4ccccc43)n2)cc1 [Compound 525]
–	–	> 12.6	> 12.6	> 12.6	> 12.6	> 12.6	> 12.6	> 12.6	> 12.6	–	–	–	–	Nc1nc2ccccc2n1-c1ncnc(N2C(=O)c3ccccc3C2=O)n1 [Compound 653]
–	–	–	0.987 to 5.92	–	> 11.1	–	0.987 to 5.92	> 11.1	–	> 11.1	> 11.1	0.987 to 5.92	8.63 to 11.1	CCOC(=O)Cc1ccc(Nc2ncnc(Nc3cc(-c4ccco4)n[nH]3)n2)cc1 [Compound 432]
